Data set [1] concerns the target T1, CsFGT (rCsFGT) (Camellia sinensis, UniProt A0A0X9FCW5, S291G).
T1 construct: gene UGT91Q1; N-terminal 6xHis-trigger factor fusion (pCold-TF), about 105 kDa; E. coli Origami (DE3); tag not removed for kinetics
Kind of data set: product formation by HPLC. Format: biochemical. To be noted: co-substrate UDP-glc.

For data set [2], the target named is T2, CsFGT (rCsFGT) (Camellia sinensis, UniProt A0A0X9FCW5, E292Q).
T2 construct: gene UGT91Q1; N-terminal 6xHis-trigger factor fusion (pCold-TF), about 105 kDa; E. coli Origami (DE3); tag not removed for kinetics
T2 sequence (A0A0X9FCW5 entry or part of it E292Q): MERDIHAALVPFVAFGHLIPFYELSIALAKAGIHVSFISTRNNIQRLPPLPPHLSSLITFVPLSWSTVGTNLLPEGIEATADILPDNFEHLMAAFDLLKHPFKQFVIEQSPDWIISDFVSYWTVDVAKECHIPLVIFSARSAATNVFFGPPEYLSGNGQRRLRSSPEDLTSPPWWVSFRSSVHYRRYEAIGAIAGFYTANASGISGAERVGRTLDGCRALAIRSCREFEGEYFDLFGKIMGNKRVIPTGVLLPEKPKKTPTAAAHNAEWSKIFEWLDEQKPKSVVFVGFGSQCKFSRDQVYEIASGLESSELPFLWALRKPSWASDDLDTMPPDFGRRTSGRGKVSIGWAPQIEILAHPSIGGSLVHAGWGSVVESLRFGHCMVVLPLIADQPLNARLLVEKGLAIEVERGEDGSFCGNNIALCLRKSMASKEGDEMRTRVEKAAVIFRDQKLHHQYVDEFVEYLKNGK
Briefly: product formation by HPLC. In kind it is biochemical. To be noted: co-substrate UDP-glc.

Data set [3] concerns the target T3, CsFGT (rCsFGT) (Camellia sinensis, UniProt A0A0X9FCW5, Q352A).
T3 construct: gene UGT91Q1; N-terminal 6xHis-trigger factor fusion (pCold-TF), about 105 kDa; E. coli Origami (DE3); tag not removed for kinetics
Briefly: product formation by HPLC. To be noted: co-substrate UDP-glc. Format: biochemical.

In data set [4] the target is T4, CsFGT (rCsFGT) (Camellia sinensis, UniProt A0A0X9FCW5, G290A).
T4 construct: gene UGT91Q1; N-terminal 6xHis-trigger factor fusion (pCold-TF), about 105 kDa; E. coli Origami (DE3); tag not removed for kinetics
T4 sequence (A0A0X9FCW5 entry or part of it G290A): as the sequence (A0A0X9FCW5 entry or part of it E292Q) above, with G290A, Q292E counted along it
Kind of data set: product formation by HPLC. In kind it is biochemical. To be noted: co-substrate UDP-glc.

Data set [5] concerns the target T5, CsFGT (rCsFGT) (Camellia sinensis, UniProt A0A0X9FCW5, E292T).
T5 construct: gene UGT91Q1; N-terminal 6xHis-trigger factor fusion (pCold-TF), about 105 kDa; E. coli Origami (DE3); tag not removed for kinetics
Briefly: product formation by HPLC. The conditions noted are these: co-substrate UDP-glc. In kind it is biochemical.

In data set [6] the target is T6, CsFGT (rCsFGT) (Camellia sinensis, UniProt A0A0X9FCW5, R319P).
T6 construct: gene UGT91Q1; N-terminal 6xHis-trigger factor fusion (pCold-TF), about 105 kDa; E. coli Origami (DE3); tag not removed for kinetics
T6 sequence (A0A0X9FCW5 entry or part of it R319P): as the sequence (A0A0X9FCW5 entry or part of it E292Q) above, with Q292E, R319P counted along it
Briefly: product formation by HPLC. Format: biochemical. The conditions noted are these: co-substrate UDP-glc.

Data set [7] concerns the target T7, CsFGT (rCsFGT) (Camellia sinensis, UniProt A0A0X9FCW5, R319N).
T7 construct: gene UGT91Q1; N-terminal 6xHis-trigger factor fusion (pCold-TF), about 105 kDa; E. coli Origami (DE3); tag not removed for kinetics
Briefly: product formation by HPLC. Format: biochemical. The conditions noted are these: co-substrate UDP-glc.

Data set [8] concerns the target T8, CsFGT (rCsFGT) (Camellia sinensis, UniProt A0A0X9FCW5, Q352I).
T8 construct: gene UGT91Q1; N-terminal 6xHis-trigger factor fusion (pCold-TF), about 105 kDa; E. coli Origami (DE3); tag not removed for kinetics
Kind of data set: product formation by HPLC. In kind it is biochemical. The conditions noted are these: co-substrate UDP-glc.

Substrate in data set [9]: C[C@@H]1O[C@@H](OC[C@H]2O[C@@H](Oc3c(-c4ccc(O)c(O)c4)oc4cc(O)cc(O)c4c3=O)[C@H](O)[C@@H](O)[C@@H]2O)[C@H](O)[C@H](O)[C@H]1O
Kind of data set: UDP-Glo glycosyltransferase assay, Michaelis-Menten fit. Format: biochemical, Camellia sinensis. The conditions noted are these: 1 mM UDP-glucose, 50 mM phosphate pH 8.0, 30°C, 10 min. From the text:
(§1) UDP-Glo glycosyltransferase assay, Michaelis-Menten fit on CsFGT (rCsFGT)

Substrate in data set [10]: O=c1ccn([C@@H]2O[C@H](COP(=O)(O)OP(=O)(O)O[C@H]3O[C@H](CO)[C@H](O)[C@H](O)[C@H]3O)[C@@H](O)[C@H]2O)c(=O)[nH]1
The description is as above. To be noted: co-substrate delphinidin, pH 8.0, 30°C, 10 min, galactosyl transfer. Format: biochemical, Camellia sinensis.
Text: as §1

Substrate in data set [11]: O=c1ccn([C@@H]2O[C@H](CO[P@@](=O)(O)O[P@@](=O)(O)O[C@H]3O[C@H](CO)[C@@H](O)[C@H](O)[C@H]3O)[C@@H](O)[C@H]2O)c(=O)[nH]1
The description is as above. Format: biochemical, Camellia sinensis. To be noted: 100 μM Q-g-r (rutin), 50 mM phosphate pH 8.0, 30°C, 10 min.
Text: as §1

Substrate in data set [12]: Oc1cc(O)c2cc(O)c(-c3cc(O)c(O)c(O)c3)[o+]c2c1
The description is as above. In kind it is biochemical, Camellia sinensis. The conditions noted are these: 1 mM UDP-galactose, pH 8.0, 30°C, 10 min, galactosyl transfer.
Text: as §1

T8 sequence (A0A0X9FCW5 entry or part of it Q352I): as the sequence (A0A0X9FCW5 entry or part of it E292Q) above, with Q292E, Q352I counted along it
T5 sequence (A0A0X9FCW5 entry or part of it E292T): as the sequence (A0A0X9FCW5 entry or part of it E292Q) above, with Q292T counted along it
T7 sequence (A0A0X9FCW5 entry or part of it R319N): as the sequence (A0A0X9FCW5 entry or part of it E292Q) above, with Q292E, R319N counted along it
T1 sequence (A0A0X9FCW5 entry or part of it S291G): as the sequence (A0A0X9FCW5 entry or part of it E292Q) above, with S291G, Q292E counted along it
T3 sequence (A0A0X9FCW5 entry or part of it Q352A): as the sequence (A0A0X9FCW5 entry or part of it E292Q) above, with Q292E, Q352A counted along it

For `C[C@@H]1O[C@@H](OC[C@H]2O[C@@H](Oc3c(-c4ccc(O)c(O)c4)oc4cc(O)cc(O)c4c3=O)[C@H](O)[C@@H](O)[C@@H]2O)[C@H](O)[C@H](O)[C@H]1O` [Q-g-r], the relative enzymatic activity result is “mutants with activity unchanged or enhanced (G290A, S291G, E292Q, R319N, and R319P)” in [1]; “mutants with activity unchanged or enhanced (G290A, S291G, E292Q, R319N, and R319P)” in [2]; “E292T, Q352A, and Q352I mutants exhibited significantly decreased activity” in data set [3]; “mutants with activity unchanged or enhanced (G290A, S291G, E292Q, R319N, and R319P)” in data set [4]; “E292T, Q352A, and Q352I mutants exhibited significantly decreased activity” in data set [5]; “mutants with activity unchanged or enhanced (G290A, S291G, E292Q, R319N, and R319P)” in data set [6]. The relative enzymatic activity result in data set [7] was “the mutant R319N had significantly enhanced activity”; in [8] it was “E292T, Q352A, and Q352I mutants exhibited significantly decreased activity”.

B1: CsFGT (rCsFGT) (Camellia sinensis) (protein)
chain: MERDIHAALVPFVAFGHLIPFYELSIALAKAGIHVSFISTRNNIQRLPPLPPHLSSLITFVPLSWSTVGTNLLPEGIEATADILPDNFEHLMAAFDLLKHPFKQFVIEQSPDWIISDFVSYWTVDVAKECHIPLVIFSARSAATNVFFGPPEYLSGNGQRRLRSSPEDLTSPPWWVSFRSSVHYRRYEAIGAIAGFYTANASGISGAERVGRTLDGCRALAIRSCREFEGEYFDLFGKIMGNKRVIPTGVLLPEKPKKTPTAAAHNAEWSKIFEWLDEQKPKSVVFVGFGSECKFSRDQVYEIASGLESSELPFLWALRKPSWASDDLDTMPPDFGRRTSGRGKVSIGWAPQIEILAHPSIGGSLVHAGWGSVVESLRFGHCMVVLPLIADQPLNARLLVEKGLAIEVERGEDGSFCGNNIALCLRKSMASKEGDEMRTRVEKAAVIFRDQKLHHQYVDEFVEYLKNGK
notes: N-terminal 6xHis-trigger factor fusion (pCold-TF), about 105 kDa; E. coli Origami (DE3); tag not removed for kinetics
One may read the Km as the substrate concentration at which the rate is half of its maximum. One may read the kcat/Km as the second-order rate constant that governs catalysis at low substrate concentration. With B1, the Km in data set [9] came out at 50.3 ± 9.7 µM; in data set [10] it was 1143.3 ± 313.5 µM; in data set [11] it was 209.7 ± 43.9 µM; in data set [12], 902.5 ± 109.0 µM. For the same molecule, the kcat/Km was 610000 M⁻¹ s⁻¹ in [9], 3100 M⁻¹ s⁻¹ in data set [10], 110000 M⁻¹ s⁻¹ in data set [11] and 24000 M⁻¹ s⁻¹ in data set [12].

The values above are taken from PMC12313340, “Functional analysis of a UDP-glucosyltransferase gene contributing to biosynthesis of the flavonol triglycoside in tea plants” (Horticulture Research, 2025).
